# Source: patent US20260041744A1, “Methods for Treating Pompe Disease” (Amicus Therapeutics, Inc., priority 2022, published 2026)
# Key:
# [1] = test system: adult subjects with LOPD; assay: Study ATB200-07 (OLE): MMT lower extremity
# Text: (§1) Analysis populations presented in this summary are 1) the OLE-ES Population (all subjects who satisfied the eligibility requirements (based on the inclusion and exclusion criteria) and entered Study ATB200-07 and 2) the OLE-FAS Population (all subjects who entered the OLE Study ATB200-07 who had both a valid ATB200-07 baseline and at least 1 post-baseline assessment for at least 1 of the 6 main efficacy endpoints [6MWD, sitting % predicted FVC, MMT-lower extremities, PROMIS-Physical Function, PROMIS-Fatigue, and GSGC]).
# [2] = test system: adult subjects with Pompe disease; assay: Pooled Studies ATB200-02/03/07 (Pool 2): sitting % predicted FVC by exposure interval; conditions: exposure interval ≤15 months
# Method: (§2) The pooled efficacy analyses presented within this section include the outlier (Pool 2). […] Pooled efficacy analyses excluding the outlier subject (Pool 2A) were also performed.
# (§3) No long-term data for the alglucosidase alfa/placebo group are available, as all subjects switched to cipaglucosidase alfa/miglustat in Study ATB200-07.
# (§4) Efficacy data from the 3 adult Pompe disease clinical studies were pooled and analyzed to further support the long-term efficacy of cipaglucosidase alfa/miglustat in adult subjects. Data from non-ambulatory subjects (Study ATB200-02 Cohort 2) were not included in the pool as there was little overlap of efficacy endpoints for this group with the various ambulatory groups, such as 6MWD and lower MMT.
# (§5) The 3 adult Pompe disease clinical studies were pooled as follows: • The cipaglucosidase alfa/miglustat treatment group consists of: • All ambulatory subjects in Study ATB200-02 (Cohorts 1, 3, and 4), • All subjects randomized to the cipaglucosidase alfa/miglustat treatment group in Study ATB200-03, and • All subjects enrolled in Study ATB200-07. • The alglucosidase alfa/placebo treatment group consists of: • All subjects randomized to the ERT treatment group in Study ATB200-03.
# [3] = test system: adult subjects with late-onset Pompe disease (LOPD); assay: Study ATB200-03 (PROPEL): PROMIS-Physical Function; format: in vivo, human; conditions: for CHG to Week 52 in PROMIS-Physical Function total score, LS Mean: MMRM, actual time point of assessments; for PROMIS-Physical Function Short Form 20a total score CHG, LS means (SE): Week 52, ANCOVA
# Method: The test for the primary endpoint was conducted first at the 1-sided 0.025 significance level, and if significant, the ordered key secondary endpoints were similarly tested at the same significance level. The statistical significance of the key secondary endpoints was interpreted following a hierarchical testing order, each at the 1-sided alpha level of 0.025. […] Primary analyses of efficacy were performed using the mixed-effect model for repeated measures (MMRM) for 6MWD in Intent-to-treat Observed Population (ITT) that includes all available, observed data without any missing data imputation (ITT-OBS) and analysis of covariance (ANCOVA) for all other endpoints in the Intent-to-Treat-Last Observation Carried Forward (ITT-LOCF) Population. A nonparametric randomization based ANCOVA was specified as the first sensitivity analysis for 6MWD and FVC. […] For the purposes of data presentation in this document, 2-sided p-values are reported hereafter, except as otherwise noted.
# [4] = test system: LOPD population (PROPEL target population); assay: Multi-level network meta-regression (ML-NMR) indirect treatment comparison, 6MWD and FVC change from baseline at week 52; design: species or system human; conditions: base-case scenario
# Method: Using patient-level data from the PROPEL randomized clinical trial (RCT) plus aggregate published data from other RCTs, Phase I/II and open label extension trials, a multi-level network meta-regression was conducted, adjusting for various baseline covariates including previous ERT duration. The base case scenario had covariates resembling the PROPEL population (naïve and ERT-experienced) and analyzed 6MWD and FVC change from baseline at 52 weeks.
# An ITC providing relative effect estimates in the target population of interest (ie an LOPD population including a mix of ERT-naïve and ERT-experienced subjects as in the pivotal Phase III trial comparing Cipa+mig with Alglu [PROPEL]) was performed.
# A systematic literature review (SLR) was conducted to identify relevant published clinical studies of ERTs in LOPD. Outcomes assessed were change from baseline in 6-minute walking distance (6MWD) (m) and in forced vital capacity (FVC; % predicted) at week 52, acknowledged by clinicians, HTA agencies and payers as key LOPD trial endpoints. Aggregate results on 6MWD and FVC change from baseline over time and baseline characteristics (age, gender, ethnicity, previous ERT duration, baseline 6MWD and baseline FVC) were extracted from included studies.
# A multi-level network meta regression (ML-NMR) was performed, which is an extension of standard network meta-analyses (NMAs) that take into account the effect of study-level covariates, and that can be applied to any connected network with any mixture of individual patient-level data (IPD) and aggregate data. ML-NMR is an accepted method by the National Institute for Health and Care Excellence (NICE) in support of cost effectiveness analysis. Single-arm study results were matched to appropriate comparator arms of the comparative studies to allow for inclusion into the network. Mean treatment differences with associated 95% credible intervals (CrIs) were calculated for 6MWD and FVC change from baseline at week 52.
# A base-case scenario was evaluated in which all covariates were set to the target population of the PROPEL trial. To study the impact of previous ERT duration on relative effects, ERT duration value was varied, keeping remaining covariate values as in the base-case scenario. A sensitivity analysis was performed by excluding all matched single-arm evidence from the network to assess its impact on the results.
# Both fixed effects (FE) and random effects (RE) ML-NMR models were applied and the deviance information criteria (DIC) was used to assess goodness-of-fit of the models and to identify the appropriate model (FE or RE model) for the data. Models were implemented in a Bayesian framework using Stan with help of the R package multinma.
# In the base-case scenario, the covariates were set to the baseline characteristics of the target population (ie the PROPEL trial; see Table 20), and time was set to 52 weeks.
# [5] = test system: adult subjects with late-onset Pompe disease (LOPD); assay: Study ATB200-03 (PROPEL): serum creatine kinase (CK); format: in vivo, human; conditions: combined study population
# [6] = test system: adult subjects with LOPD; assay: Study ATB200-07 (OLE): PROMIS-Fatigue; format: in vivo, human
# Text: as §1
# [7] = test system: adult subjects with Pompe disease; assay: Pooled Studies ATB200-02/03/07 (Pool 2): 6MWD by exposure interval; conditions: exposure interval ≤15 months
# Method: as §2, §3, §4, §5
# [8] = Study ATB200-03 baseline, OLE-ES Population excluding Subject 4005-2511
# [9] = change from ATB200-03 baseline at Week 104, alglucosidase alfa/placebo group switched to cipaglucosidase alfa/miglustat at Week 52, OLE-ES excluding Subject 4005-2511
# [10] = Pool 2, Efficacy Population including the outlier
# [11] = last available post-baseline value − baseline, Pool 2, including the outlier
# [12] = Week 52-LOCF, ERT-experienced Population
# [13] = Week 52-LOCF, ERT-naïve Subjects excluding Subject 4005-2511
# [14] = Week 52-LOCF, ITT excluding Subject 4005-2511
substance,measurement,setting,value
alglucosidase alfa [reference compound],"MMT (lower extremity score), mean BSL",[1]; [8],27.8
same,"MMT (lower extremity score), mean 52-wk CFB","[1]; change from ATB200-03 baseline at Week 52, OLE-ES excluding Subject 4005-2511",0.9
same,"MMT (lower extremity score), mean 104-wk CFB",[1]; [9],1.1
same,"Sitting % Predicted FVC Baseline, Mean",[2]; [10],70.04 % predicted
same,"Sitting % Predicted FVC Baseline, Median","[2]; Pool 2, including the outlier",71.25 % predicted
same,"sitting % predicted FVC change from baseline, median","[2]; Pool 2, including the outlier",−3.00 % predicted
same,"sitting % predicted FVC change from baseline, mean",[2]; [11],−3.64 % predicted
same,"PROMIS-Physical Function Short Form 20a total score Absolute Value, Median","[3]; Baseline, ITT, ERT-naïve Subjects excluding Subject 4005-2511",67.00
same,"PROMIS-Physical Function Short Form 20a total score Absolute Value, Mean","[3]; Baseline, ITT, ERT-naïve Subjects excluding Subject 4005-2511, score 20 to 100, higher = less impact",72.71
same,mean (SD) change in PROMIS-Physical Function total score from baseline to Week 52,[3]; ERT-experienced Population,1.0 (11.20)
same,mean (SD) change in PROMIS-Physical Function total score from baseline to Week 52,[3]; ERT-naïve excluding Subject 4005-2511,5.1 (7.82)
same,"Change in PROMIS-Physical Function total score baseline to Week 52, LS means (SE) from ANCOVA","[3]; ITT-LOCF, ERT-naïve Subjects excluding Subject 4005-2511",6.96 (3.539)
same,"CHG to Week 52 in PROMIS-Physical Function total score, LS Mean",[3]; ITT-OBS excluding Subject 4005-2511 (overall),−0.3
same,"CHG to Week 52 in PROMIS-Physical Function total score, LS Mean","[3]; ITT-OBS excluding Subject 4005-2511, ERT-naïve Subjects",5.8
same,"CHG to Week 52 in PROMIS-Physical Function total score, LS Mean","[3]; ITT-OBS, ERT-experienced Subjects",−1.6
same,"PROMIS-Physical Function Short Form 20a total score Absolute Value, Mean (SD)",[3]; [12],65.90 (15.790)
same,"PROMIS-Physical Function Short Form 20a total score Absolute Value, Median",[3]; [12],66.00
same,"PROMIS-Physical Function Short Form 20a total score CHG, Mean (SD)",[3]; [12],−0.97 (11.196)
same,"PROMIS-Physical Function Short Form 20a total score CHG, Median",[3]; [12],−2.00
same,"PROMIS-Physical Function Short Form 20a total score Absolute Value, Mean",[3]; [13],77.86
same,"PROMIS-Physical Function Short Form 20a total score Absolute Value, Median",[3]; [13],80.00
same,"PROMIS-Physical Function Short Form 20a total score CHG (change from baseline), Mean",[3]; [13],5.14
same,"PROMIS-Physical Function Short Form 20a total score CHG (change from baseline), Median",[3]; [13],5.00
same,"PROMIS-Physical Function Short Form 20a total score Absolute Value, Mean (SD)",[3]; [14],68.16 (16.269)
same,"PROMIS-Physical Function Short Form 20a total score Absolute Value, Median",[3]; [14],69.00
same,"PROMIS-Physical Function Short Form 20a total score CHG, Mean (SD)",[3]; [14],0.19 (10.819)
same,"PROMIS-Physical Function Short Form 20a total score CHG, Median",[3]; [14],−1.00
same,"PROMIS-Physical Function Short Form 20a total score CHG, LS means (SE)",[3]; ITT-LOCF excluding Subject 4005-2511,0.11 (1.406)
same,"PROMIS-Physical Function Short Form 20a total score CHG, LS means (SE)","[3]; ITT-LOCF, ERT-experienced Population",−1.25 (1.587)
same,mean (SD) change in PROMIS-Physical Function total score from baseline to Week 52,[3]; overall population,0.2 (10.82)
same,"relative effect, sensitivity analysis (RCT data only), 6MWT and FVC",[4],numerically favourable versus placebo
same,mean change in CK after 52 weeks,[5],+15.6%
same,"PROMIS-Fatigue, mean BSL",[6]; [8],21.2
same,"PROMIS-Fatigue, mean 52-wk CFB","[6]; change from ATB200-03 baseline at Week 52, decrease indicates improvement, OLE-ES excluding Subject 4005-2511",−1.7
same,"PROMIS-Fatigue, mean 104-wk CFB",[6]; [9],−0.1
same,"6MWD Baseline, Mean",[7]; [10],350.14 meters
same,"6MWD Baseline, Median","[7]; Pool 2, including the outlier",358.45 meters
same,"6MWD change from baseline, median","[7]; Pool 2, including the outlier",3.15 meters
same,"6MWD change from baseline, mean",[7]; [11],16.40 meters
